{"source": "patent US12390472B2", "about": "(SUZHOU SINOVENT PHARMACEUTICALS CO., LTD., priority 2018, dated 2025)", "key": {"Pfeiffer": {"system": "Pfeiffer", "experiment": "Methylated lysine of histone-H3 (H3K27Me3) detection by ELISA, Pfeiffer cells", "format": "cell-based, human", "details": "Homo sapiens, 168 h, 7 days treatment, H3K27Me3 normalized to total histone-3, read-out: IC50 of cell methylation, Pfeiffer", "summary_of_the_method": "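Cells were treated 7 days with compound (4-fold dilutions, 20 uM-0.009 nM), then lysed hypotonically with NaCl adjusted to ~100 mM. Lysate-coated plates were probed by ELISA for H3K27Me3 and total H3 (TMB, A450). Methylation signal was normalised to total H3 before curve fitting.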"}, "WSU-DLCL2 cells": {"system": "WSU-DLCL2 cells", "experiment": "Experiment on WSU-DLCL2 cell proliferation (Calcein-AM)", "format": "cell-based", "details": "Homo sapiens", "experimental": "WSU-DLCL2 cells were plated in a 96-well plate and 100 uL of cells (a density of 1×10^5 cells/mL) and 50 uL of compound stock at 3-fold concentration was added to each well, and the final volume was 150 uL/well. After 6 days of culturing, on day 7, the cells in the well plate were mixed well by pipetting, and 50 uL of the cell suspension was pipetted to be tested for cell viability using Calcein-AM. 50 uL of the cell suspension was added to a 96-well plate coated by poly-D-Lysine, and then 50 uL of HBSS containing 2 uM Calcein-AM was added to make the final concentration of Calcein-AM 1 uM. After incubation for 10 min at room temperature, the cells were rapidly centrifuged to be deposited on the bottom of the plate. The cells were cultured in the incubator for another 40 min and then the plate was read on Acumen.\nThe remaining cells were diluted and then plated in a 96-well plate, and 100 uL of cells and 50 uL of a compound at 3-fold concentration were added to each well for further culturing until day 14, and the cell viability was detected as described above. The IC50 was calculated."}, "[1]": {"experiment": "In vivo pharmacokinetic properties in mice", "set-up": "species or system mouse", "details": "male ICR mice", "summary_of_the_method": "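Male ICR mice, n=3 per group, dosed once at 5 mg/kg IV in 10% DMSO/90% (20% Captisol) or 250 mg/kg intragastrically in 0.5% CMC-Na/0.1% Tween 80 (pH 3-4). EDTA-K2 plasma sampled from 5 min to 24 h; compound levels measured by LC-MS/MS.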"}}, "note": "Like-named read-outs stand apart in the source and are kept apart here.", "data": [{"smiles": "CCN(c1cc(O[C@H]2C[C@H](N3C[C@@H](C)O[C@@H](C)C3)C2)cc(C(=O)NCc2c(C)cc(C)[nH]c2=O)c1C)C1CCC(F)(F)CC1", "note": "[Example 45, 3-((4,4-difluorocyclohexyl)(ethyl)amino)-N-((4,6-dimethyl-2-oxo-1,2-dihydropyridin-3-yl)methyl)-5-(trans-3-(cis-2,6-dimethylmorpholinyl)cyclobutoxy)-2-methylbenzamide]", "values": [{"measurement": "IC50", "setting": "Pfeiffer", "result": "50 to 500", "unit": "nM"}, {"measurement": "IC50", "setting": "WSU-DLCL2 cells; WSUDLCL2, 168 h, WSU-DLCL2, Day 7, read-out: IC50 WSU-DLCL2 proliferation Day 7", "result": 91, "unit": "nM"}, {"measurement": "IC50", "setting": "WSU-DLCL2 cells; WSUDLCL2, 336 h, WSU-DLCL2, Day 14, read-out: IC50 WSU-DLCL2 proliferation Day 14", "result": 18, "unit": "nM"}, {"measurement": "F", "setting": "[1]; intragastric 250 mg/kg vs intravenous 5 mg/kg", "result": 43.5, "unit": "%"}, {"measurement": "CL", "setting": "[1]; single intravenous 5 mg/kg and intragastric 250 mg/kg study", "result": "37.0 ± 8.82", "unit": "mL/min/lg"}, {"measurement": "AUC(0-inf)", "setting": "[1]; mouse, plasma, oral, single intravenous 5 mg/kg and intragastric 250 mg/kg study", "result": 50900, "unit": "ng·h/mL"}, {"measurement": "Cmax", "setting": "[1]; mouse, plasma, oral, single intravenous 5 mg/kg and intragastric 250 mg/kg study, read-out: Cmax", "result": "10500 ± 436", "unit": "ng/mL"}, {"measurement": "Tmax", "setting": "[1]; mouse, plasma, oral, single intravenous 5 mg/kg and intragastric 250 mg/kg study, read-out: Tmax", "result": 1, "unit": "h"}, {"measurement": "half-life", "setting": "[1]; mouse, plasma, single intravenous 5 mg/kg and intragastric 250 mg/kg study", "result": "446 ± 165", "unit": "min"}]}]}
